Patent US8362256B2, “Salts of N-[4-(1-cyanocyclopentyl)phenyl]-2-(4-pyridylmethyl)amino-3-pyridinecarboxamide” (Jiangsu Hengrui Medicine Co. Ltd., priority 2008, dated 2013)

Test: in vivo
Conditions: male, Sprague-Dawley, rat, po; for MRT: MRT of compound A; for Tmax: Tmax of compound A
Excerpt: Male Sprague-Dawley (SD) rats (weight: about 250 g, experimental animal certification of fitness: 0006473) were purchased from Shanghai Slaccas experimental animals limited liability company (certification number: SCXK (Hu) 2003-0003). The relevant qualifications and state of health of the SD rats were checked first, and the eligible ones were placed into the clean grade chambers of rats in Shanghai institute of Materia Medica.
I. Analysis Condition of LC/MS/MS
Analysis Condition of Liquid Chromatography
Chromatographic column: Agilent Zorbax SB-C18 column (50 mm×2.1 mm ID);
Column temperature: 25° C.;
Mobile phase: A: H2O—CH3CN (2:98, v/v), B: H2O—CH3CN (10:90, v/v)
A: 25%+B: 75%, constant gradient elution;
Analysis time: 3 minutes.
The light circle was switched to 12/12 hour day/night in the clean grade chambers of rats. Humidity and temperature were 40-60% and 20-24° C., respectively. Every 4 rats were raised in a 36×24×19 cm^3 stainless rat cage. The rats took water freely and were fed special rat food regularly once daily. Only after one week adaption, the rats were used to conduct pharmacokinetics studies. 12 Sprague-Dawley rats were divided into 4 groups, 3 for each group.
The blood samples were collected 0 hour before the administration and 0.083, 0.25, 0.5, 1.0, 2, 4, 6, and 8 hours after the administration. The blood samples were collected at 250˜300 μL at each time point from posterior venous sinus of the eye after respiration anaesthesia with ether (the degree of anaesthesia was highly controlled). The blood was collected into test tubes containing heparin, and then was centrifuged to produce plasma. The obtained plasma was divided into 2 parts (50 μL for each part) and stored at −70° C. until analysis. […] After experiments, euthanasia was performed with CO2 gas.
Pharmacokinetics parameters of animal experiment of each group were calculated using InnaPhase Kinetica™ software (America).

N#CC1(c2ccc(NC(=O)c3cccnc3NCc3ccncc3)cc2)CCCC1 [Mesylate of compound A]
AUC(0-t) (1 mmol/kg, AUC0→8 h Mol dose): 17200 ± 6980 ng·h/mL | AUC(0-t) (20 mg/kg, AUC0→8 h of compound A, Mean ± SD): 697 ± 283 ng·h/mL | concentration at 0 h (20 mg/kg, Blood Concentration of compound A, 0 h): 0 ng/mL | concentration at 4 h (20 mg/kg, Blood Concentration of compound A, 4 h): 30.5 ng/mL | concentration at 8 h (20 mg/kg, Blood Concentration of compound A, 8 h): 29.9 ng/mL | Cmax (20 mg/kg, Cmax of compound A, Mean ± SD): 489 ± 296 ng/mL | MRT (20 mg/kg): 70.8 min | MRT (20 mg/kg, Mean ± SD): 98.4 ± 28.8 min | half-life (20 mg/kg, T1/2 of compound A, Mean ± SD): 52.2 ± 23.4 min | Tmax (20 mg/kg): 15 min | Tmax (20 mg/kg, Mean ± SD): 19.8 ± 8.4 min
